The results in this text go back to article PMC7997411, “Discovery and Optimization of Selective Inhibitors of Meprin α (Part II)” (Pharmaceuticals, 2021).

Each structure is given as a SMILES string. pIC50, pKi: −log10 of the molar value.

For orientation: pIC50 means −log10 of the IC50, conventionally taken in molar units. A low value points to a high IC50. A word on the pKi: it is the Ki on a negative log10 scale, so that one unit is a factor of ten.

For one series, the target named is T1, ADAM10 (Homo sapiens, UniProt O14672).
T1 construct: purchased R&D Systems 936-AD
T1 sequence (O14672 214-748): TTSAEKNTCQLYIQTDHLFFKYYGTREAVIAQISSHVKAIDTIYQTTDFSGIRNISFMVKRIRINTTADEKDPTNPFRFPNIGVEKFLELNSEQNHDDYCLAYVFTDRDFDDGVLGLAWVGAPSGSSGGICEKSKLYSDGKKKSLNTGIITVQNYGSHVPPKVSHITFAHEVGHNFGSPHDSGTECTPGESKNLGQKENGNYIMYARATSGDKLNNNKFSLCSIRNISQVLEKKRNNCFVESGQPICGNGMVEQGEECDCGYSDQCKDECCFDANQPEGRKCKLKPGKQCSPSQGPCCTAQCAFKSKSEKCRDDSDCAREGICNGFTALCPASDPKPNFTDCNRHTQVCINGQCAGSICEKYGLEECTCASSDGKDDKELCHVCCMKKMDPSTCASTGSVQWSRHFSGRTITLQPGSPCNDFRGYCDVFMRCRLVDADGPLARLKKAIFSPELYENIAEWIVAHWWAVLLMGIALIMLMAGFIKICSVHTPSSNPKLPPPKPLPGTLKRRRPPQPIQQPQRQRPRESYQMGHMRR
Briefly: ADAM10 assay. In kind it is biochemical. The procedure: All common chemicals were purchased from Sigma.
Both assays followed the same general protocol. […] After 30 min incubation at RT, the reactions were started by addition of 2.5 µL of 2× solutions of substrate (R&D Systems cat#: ES010, Mca-KPLGL-Dpa-AR-NH2, 20 µM). […] All compounds were tested in 10-point, 1:3 serial dilutions dose-response format starting with highest concentration of 100 µM. IC50 values were determined using non-linear regression analysis using the GraphPad Prism 8.0 suite of programs.

Series [1] relates to WM266-4 (skin melanoma), HEK293 (kidney), and BJ (skin fibroblasts) cells. Briefly: Cell viability, CellTiter Glo assay after 72 h treatment. The class given is cell-based. The procedure: Figure 6 Characterization of SR24717 for effects on cell viability and cytotoxicity. (A) Effect of SR24717 on viability of WM266-4 (skin melanoma), HEK293 (kidney), and BJ (skin fibroblasts) cells. CellTiter Glo™ assay (Promega) was used after 72 h treatment. (B) Effect of SR24717 on viability of HEK293 (kidney) and BJ (skin fibroblasts) cells. The CellTox Green™ assay (Promega) was used. All experiments performed as 10-point 3-fold concentration-response curves in triplicate.
Test compounds were solubilized in 100% DMSO and added to polypropylene 384-well plates (Greiner cat# 781280). 1250 of BJ skin fibroblasts or primary melanocytes were plated in 384-well plates in 8 µL of serum-free media (HybriCare for BT474, EMEM for HEK293). […] Luminescence was recorded using a Biotek Synergy H1 multimode microplate reader. Viability was expressed as a percentage relative to wells containing media only (0%) and wells containing cells treated with DMSO only (100%). Three parameters were calculated on a per-plate basis: (a) the signal-to-background ratio (S/B), (b) the coefficient for variation (CV; CV = (standard deviation/mean) × 100) for all compound test wells, and (c) the Z’-factor. IC50 values were calculated by fitting normalized data to sigmoidal log vs. response equation utilizing non-linear regression analysis from GraphPad Prism 8.
In general terms: In ATP-based viability assays light output follows the ATP content of the culture.

For the next series, the target named is T2, meprin α (Homo sapiens, UniProt Q16819).
T2 construct: Strep-tag; made in house; host or cells: BTI-TN-5B1-4 insect cells (baculovirus, amplified in Sf9)
T2 sequence (Q16819 66-746): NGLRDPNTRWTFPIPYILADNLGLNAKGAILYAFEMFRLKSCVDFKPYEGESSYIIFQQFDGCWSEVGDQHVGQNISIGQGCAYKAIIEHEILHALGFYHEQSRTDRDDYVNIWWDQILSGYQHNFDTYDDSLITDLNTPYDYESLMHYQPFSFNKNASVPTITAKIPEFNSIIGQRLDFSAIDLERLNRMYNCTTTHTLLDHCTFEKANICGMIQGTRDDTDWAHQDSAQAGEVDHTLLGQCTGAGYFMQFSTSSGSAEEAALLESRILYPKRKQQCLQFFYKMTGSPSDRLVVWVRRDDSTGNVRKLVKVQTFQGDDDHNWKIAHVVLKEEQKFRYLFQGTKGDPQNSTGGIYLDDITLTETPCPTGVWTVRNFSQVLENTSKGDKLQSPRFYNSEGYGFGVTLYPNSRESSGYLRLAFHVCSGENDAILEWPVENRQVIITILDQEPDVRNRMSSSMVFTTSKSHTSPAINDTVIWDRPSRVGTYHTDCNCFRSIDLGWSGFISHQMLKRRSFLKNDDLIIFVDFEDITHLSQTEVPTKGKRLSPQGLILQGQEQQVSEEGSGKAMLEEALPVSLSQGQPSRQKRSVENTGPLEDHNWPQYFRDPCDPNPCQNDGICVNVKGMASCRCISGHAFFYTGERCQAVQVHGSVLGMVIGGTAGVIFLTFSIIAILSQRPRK
The series is described as follows: Kinetic parameters of meprin α mediated proteolysis in the presence of SR24717. The class given is biochemical. The procedure:
Substrate stock solutions were prepared at various concentrations in HTS assay buffer (50 mM HEPES, 0.01% Brij-35, pH 7.5). Assays were conducted by incubating a range of substrate (2–50 µM) and SR24717 concentrations (0–1000 nM) with 1.3 nM meprin α at 25 °C. Fluorescence was measured on a multimode microplate reader Synergy H1 (Biotek Instruments, Winooski, VT, USA) using λexcitation = 324 nm and λemission = 393 nm. Rates of hydrolysis were obtained from plots of fluorescence versus time, using data points from only the linear portion of the hydrolysis curve. The slope from these plots was divided by the fluorescence change corresponding to complete hydrolysis and then multiplied by the substrate concentration to obtain rates of hydrolysis in units of μM/s. Kinetic parameters were calculated by non-linear regression analysis using the GraphPad Prism 8.0 suite of programs.

Take `COc1cc(OC)nc(SCc2nnc(SCC(=O)NO)n2-c2ccc(N(C)C)cc2)n1` [SR24717]: at ADAM10, the pIC50 is less than 4.00. In addition, in series [1], the “concentration at which negative effects on viability were observed” value amounted to 100 µM. Moreover, the negative-log Ki (pKi) on meprin α (global fit to the competitive model of inhibition) is 6.52. Besides, the “mode of inhibition of meprin α” value on meprin α (varying substrate concentration) is reported as “competitive”.
